Tested on: 317291-083-R-J1-PDC complex spheroids, viability
Test: Anticancer human tumor 317291-083-R-J1-PDC patient-derived soft tissue sarcoma cell line growth inhibition [GQUAD]
Conditions: for IC50: curve of first compound; for viability, T/C: stronger effect = lower value
Method in brief: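 Multi-cell-type spheroids of tumor cells with HUVEC and mesenchymal stem cells, treated with drug combinations. Concentrations descend in half-log steps from near clinical Cmax, or from 10 microM where Cmax is unknown; viability read-out.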

[1] = second compound 0.0316 µM, first compound 0.0316 µM
[2] = second compound 0.0316 µM, first compound 0.1 µM
[3] = second compound 0.0316 µM, first compound 0.316 µM
[4] = second compound 0.0316 µM, first compound 1 µM
[5] = second compound 0.0316 µM, first compound 3.16 µM
[6] = second compound 0.0316 µM, first compound 10 µM
[7] = second compound 0.1 µM, first compound 0.0316 µM
[8] = second compound 0.1 µM, first compound 0.1 µM
[9] = second compound 0.1 µM, first compound 0.316 µM
[10] = second compound 0.1 µM, first compound 1 µM
[11] = second compound 0.1 µM, first compound 3.16 µM
[12] = second compound 0.1 µM, first compound 10 µM
[13] = second compound 0.316 µM, first compound 0.0316 µM
[14] = second compound 0.316 µM, first compound 0.1 µM
[15] = second compound 0.316 µM, first compound 0.316 µM
[16] = second compound 0.316 µM, first compound 1 µM
[17] = second compound 0.316 µM, first compound 3.16 µM
[18] = second compound 0.316 µM, first compound 10 µM
[19] = second compound 1 µM, first compound 0.0316 µM
[20] = second compound 1 µM, first compound 0.1 µM
[21] = second compound 1 µM, first compound 0.316 µM
[22] = second compound 1 µM, first compound 1 µM
[23] = second compound 1 µM, first compound 3.16 µM
[24] = second compound 1 µM, first compound 10 µM
[25] = second compound 3.16 µM, first compound 0.0316 µM
[26] = second compound 3.16 µM, first compound 0.1 µM
[27] = second compound 3.16 µM, first compound 0.316 µM
[28] = second compound 3.16 µM, first compound 1 µM
[29] = second compound 3.16 µM, first compound 3.16 µM
[30] = second compound 3.16 µM, first compound 10 µM
[31] = second compound 10 µM, first compound 0.0316 µM
[32] = second compound 10 µM, first compound 0.1 µM
[33] = second compound 10 µM, first compound 0.316 µM
[34] = second compound 10 µM, first compound 1 µM
[35] = second compound 10 µM, first compound 3.16 µM
[36] = second compound 10 µM, first compound 10 µM
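Also: spheroids exposed to compounds for one week before readout.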
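For viability, T/C in this document: percent viability relative to DMSO vehicle wells taken as 100%.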

For CCCS(=O)(=O)Nc1ccc(F)c(C(=O)c2c[nH]c3ncc(-c4ccc(Cl)cc4)cc23)c1F + Cc1cnc(CNC(=O)c2c(=O)c3ccc(N4CCCN(C)CC4)nc3n3c2sc2ccccc23)cn1, the IC50 (second compound 0.0316 µM) was 4020 nM, the IC50 (second compound 0.1 µM) was 3920 nM and the IC50 (second compound 0.316 µM) was 179 nM. The IC50 (second compound 1 µM) was under 31.6 nM, the IC50 (second compound 3.16 µM) was under 31.6 nM and the IC50 (second compound 10 µM) was under 31.6 nM. It also gave a viability, T/C [1] of 89.2%, a viability, T/C [2] of 100% and a viability, T/C [3] of 99.8%. The viability, T/C [4] was 91.3%, the viability, T/C [5] was 60.6% and the viability, T/C [6] was 9.94%. The viability, T/C [7] was 64.3%, the viability, T/C [8] was 56.2% and the viability, T/C [9] was 67.1%. The viability, T/C [10] was 49.9%, the viability, T/C [11] was 59.4% and the viability, T/C [12] was 9.77%. It also gave a viability, T/C [13] of 43%, a viability, T/C [14] of 68.4% and a viability, T/C [15] of 43.6%. The viability, T/C [16] was 38.1%, the viability, T/C [17] was 37.5% and the viability, T/C [18] was 16.5%. It also gave a viability, T/C [19] of 55.6%, a viability, T/C [20] of 23.6% and a viability, T/C [21] of 43.1%. The viability, T/C [22] was 18.8%, the viability, T/C [23] was 19.7% and the viability, T/C [24] was 5.79%. For the same compound, the viability, T/C [25] was 10.6%, the viability, T/C [26] was 11.7% and the viability, T/C [27] was 10.6%. The viability, T/C [28] was 11.8%, the viability, T/C [29] was 21.4% and the viability, T/C [30] was 0.18%. For the same compound, the viability, T/C [31] was 10.2%, the viability, T/C [32] was 6.4% and the viability, T/C [33] was 24.3%. It also gave a viability, T/C [34] of 8.2%, a viability, T/C [35] of 16.7% and a viability, T/C [36] of 8.36%.

Work on Cc1[nH]c2ccccc2c1CCNCc1ccc(/C=C/C(=O)NO)cc1 + Cc1cnc(CNC(=O)c2c(=O)c3ccc(N4CCCN(C)CC4)nc3n3c2sc2ccccc23)cn1 yielded an IC50 (second compound 0.0316 µM) of 54.2 nM, an IC50 (second compound 0.1 µM) of 20.1 nM and an IC50 (second compound 0.316 µM) of 1.57 nM. The IC50 (second compound 1 µM) was under 0.999 nM, the IC50 (second compound 3.16 µM) was under 0.999 nM and the IC50 (second compound 10 µM) was under 0.999 nM. For the same compound, the viability, T/C (second compound 0.0316 µM, first compound 0.000999 µM) was 101%, the viability, T/C (second compound 0.0316 µM, first compound 0.00316 µM) was 80.9% and the viability, T/C (second compound 0.0316 µM, first compound 0.00999 µM) was 103%. It also gave a viability, T/C [1] of 80%, a viability, T/C (second compound 0.0316 µM, first compound 0.0999 µM) of 15.5% and a viability, T/C [3] of 0.98%. For the same compound, the viability, T/C (second compound 0.1 µM, first compound 0.000999 µM) was 67.3%, the viability, T/C (second compound 0.1 µM, first compound 0.00316 µM) was 54.2% and the viability, T/C (second compound 0.1 µM, first compound 0.00999 µM) was 55.2%. The viability, T/C [7] was 46.1%, the viability, T/C (second compound 0.1 µM, first compound 0.0999 µM) was 12.2% and the viability, T/C [9] was 0.49%. It also gave a viability, T/C (second compound 0.316 µM, first compound 0.000999 µM) of 59%, a viability, T/C (second compound 0.316 µM, first compound 0.00316 µM) of 35.4% and a viability, T/C (second compound 0.316 µM, first compound 0.00999 µM) of 31.4%. It also gave a viability, T/C [13] of 25.5%, a viability, T/C (second compound 0.316 µM, first compound 0.0999 µM) of 14.5% and a viability, T/C [15] of 0.46%. The viability, T/C (second compound 1 µM, first compound 0.000999 µM) was 34.4%, the viability, T/C (second compound 1 µM, first compound 0.00316 µM) was 20.5% and the viability, T/C (second compound 1 µM, first compound 0.00999 µM) was 34.5%. The viability, T/C [19] was 26%, the viability, T/C (second compound 1 µM, first compound 0.0999 µM) was 7.38% and the viability, T/C [21] was 0.1%. It also gave a viability, T/C (second compound 3.16 µM, first compound 0.000999 µM) of 27.3%, a viability, T/C (second compound 3.16 µM, first compound 0.00316 µM) of 41.7% and a viability, T/C (second compound 3.16 µM, first compound 0.00999 µM) of 50%. It also gave a viability, T/C [25] of 0.4%, a viability, T/C (second compound 3.16 µM, first compound 0.0999 µM) of 0.16% and a viability, T/C [27] of 0.22%. It also gave a viability, T/C (second compound 10 µM, first compound 0.000999 µM) of 3.89%, a viability, T/C (second compound 10 µM, first compound 0.00316 µM) of 11.2% and a viability, T/C (second compound 10 µM, first compound 0.00999 µM) of 0.33%. For the same compound, the viability, T/C [31] was 1.81%, the viability, T/C (second compound 10 µM, first compound 0.0999 µM) was 0.47% and the viability, T/C [33] was 0.44%.

In the case of O=C(NO)c1cnc(N2CCN(S(=O)(=O)c3ccc4ccccc4c3)CC2)nc1 + Cc1cnc(CNC(=O)c2c(=O)c3ccc(N4CCCN(C)CC4)nc3n3c2sc2ccccc23)cn1, the IC50 (second compound 0.0316 µM) is reported as 109 nM, the IC50 (second compound 0.1 µM) is reported as under 31.6 nM and the IC50 (second compound 0.316 µM) is reported as under 31.6 nM. For the same compound, the IC50 (second compound 1 µM) was under 31.6 nM, the IC50 (second compound 3.16 µM) was under 31.6 nM and the IC50 (second compound 10 µM) was under 31.6 nM. The viability, T/C [1] was 82.5%, the viability, T/C [2] was 53.5% and the viability, T/C [3] was 7.38%. For the same compound, the viability, T/C [4] was 0.63%, the viability, T/C [5] was 0.05% and the viability, T/C [6] was 0.08%. The viability, T/C [7] was 47.2%, the viability, T/C [8] was 41.8% and the viability, T/C [9] was 6.03%. For the same compound, the viability, T/C [10] was 0.12%, the viability, T/C [11] was 0.03% and the viability, T/C [12] was 0.29%. It also gave a viability, T/C [13] of 44.2%, a viability, T/C [14] of 45.2% and a viability, T/C [15] of 5.28%. It also gave a viability, T/C [16] of 0.07%, a viability, T/C [17] of 0.02% and a viability, T/C [18] of 0.62%. For the same compound, the viability, T/C [19] was 43.9%, the viability, T/C [20] was 15.2% and the viability, T/C [21] was 2.02%. For the same compound, the viability, T/C [22] was 0.07%, the viability, T/C [23] was 0.04% and the viability, T/C [24] was 0.08%. The viability, T/C [25] was 8.49%, the viability, T/C [26] was 0.73% and the viability, T/C [27] was 1.12%. The viability, T/C [28] was 1.06%, the viability, T/C [29] was 0.08% and the viability, T/C [30] was 0.11%. It also gave a viability, T/C [31] of 0.07%, a viability, T/C [32] of 0.11% and a viability, T/C [33] of 0.16%. It also gave a viability, T/C [34] of 0.1%, a viability, T/C [35] of 0.18% and a viability, T/C [36] of 0.18%.

From PubChem BioAssay AID2060497 (Molecular Pharmacology Branch, DTP, NCI, 2025)
